Source: PubChem BioAssay AID248 (DTP/NCI, 2004)
Toxic doses and inconclusive results are not listed. No stated cut-off is given here; in the data, active means T/C of 150% or more; inactive means T/C below 125%.

Tested on: L1210 leukemia ip in BDF1 mice, survival T/C
Experiment: NCI In Vivo Anticancer Drug Screen. Data for tumor model L1210 Leukemia (intraperitoneal) in B6D2F1 (BDF1) mice
Details: endpoint: mean survival time, higher = longer survival
Method in brief: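 Antitumor effect is assessed in tumor-bearing animals. Survival in the compound arm is compared with a vehicle-dosed control arm and expressed as their quotient.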

Measured: T/C

O=[N+]([O-])c1ccc(C=Nc2ccc3c(c2)C(Br)c2ccccc2-3)cc1 (configuration not stated)
inactive: dose: 100.0 mg/kg/injection, schedule: Q01DX Z (ip), vehicle: saline 91 % of control | dose: 200.0 mg/kg/injection, schedule: Q01DX Z (ip), vehicle: saline 90 % of control | dose: 400.0 mg/kg/injection, schedule: Q01DX Z (ip), vehicle: saline 95 % of control

CSc1nc(Cl)cc(/N=C/N(C)C)n1
inactive: dose: 100.0 mg/kg/injection, schedule: Q04DX003 (ip), vehicle: saline with Tween-80 95 % of control | dose: 200.0 mg/kg/injection, schedule: Q04DX003 (ip), vehicle: saline with Tween-80 115 % of control | dose: 400.0 mg/kg/injection, schedule: Q04DX003 (ip), vehicle: saline with Tween-80 111 % of control

CCCC(CN(C)C)C(=O)c1ccccc1 (configuration not stated)
inactive: dose: 25.0 mg/kg/injection, schedule: Q01DX009 (ip), vehicle: saline with Tween-80 93 % of control | dose: 25.0 mg/kg/injection, schedule: Q04DX002 (ip), vehicle: saline with Tween-80 100 % of control | dose: 50.0 mg/kg/injection, schedule: Q01DX009 (ip), vehicle: saline with Tween-80 89 % of control | dose: 50.0 mg/kg/injection, schedule: Q04DX002 (ip), vehicle: saline with Tween-80 93 % of control | dose: 100.0 mg/kg/injection, schedule: Q01DX009 (ip), vehicle: saline with Tween-80 96 % of control | dose: 100.0 mg/kg/injection, schedule: Q04DX002 (ip), vehicle: saline with Tween-80 93 % of control

COC(=O)C1OC(n2cnc3c(N)ncnc32)C(OC(C)=O)C(OC(C)=O)C1OC(C)=O (configuration not stated)
inactive: dose: 50.0 mg/kg/injection, schedule: Q01DX001 (ip), vehicle: carboxymethylcellulose (CMC) 100 % of control | dose: 100.0 mg/kg/injection, schedule: Q01DX001 (ip), vehicle: carboxymethylcellulose (CMC) 92 % of control | dose: 200.0 mg/kg/injection, schedule: Q01DX001 (ip), vehicle: carboxymethylcellulose (CMC) 100 % of control | dose: 400.0 mg/kg/injection, schedule: Q01DX001 (ip), vehicle: carboxymethylcellulose (CMC) 92 % of control

Cc1c(C(C)(C)c2ccccc2)[nH]c2ccc(C(C)(C)c3ccccc3)cc12
inactive: dose: 100.0 mg/kg/injection, schedule: Q01DX001 (ip), vehicle: saline 88 % of control | dose: 200.0 mg/kg/injection, schedule: Q01DX001 (ip), vehicle: saline 86 % of control | dose: 400.0 mg/kg/injection, schedule: Q01DX001 (ip), vehicle: saline 96 % of control

O=C(Nc1ccc(O)cc1)Nc1cccc(Cl)c1Cl
inactive: dose: 100.0 mg/kg/injection, schedule: Q01DX009 (ip), vehicle: Klucel (hydroxypropylcellulose) (HPC) 97 % of control | dose: 200.0 mg/kg/injection, schedule: Q01DX009 (ip), vehicle: Klucel (hydroxypropylcellulose) (HPC) 92 % of control | dose: 400.0 mg/kg/injection, schedule: Q01DX009 (ip), vehicle: Klucel (hydroxypropylcellulose) (HPC) 103 % of control
